# Reference: PubChem BioAssay AID1963843 (Molecular Pharmacology Branch, DTP, NCI, 2024)
# Test system: 616215-338-R-J1-PDC complex spheroid viability
# Assay: Anticancer human tumor 616215-338-R-J1-PDC patient-derived colon adenocarcinoma cell line growth inhibition [POLQ]
# Details: for IC50: curve of first compound; for viability, T/C: stronger effect = lower value
# Method in brief: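 Three-cell-type spheroids modelling solid tumor plus stroma served as the readout system; POL inhibitors were tested individually and in combination, concentration ranges set by clinical Cmax where known.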
# [1] = second compound 0.0316 µM, first compound 0.0316 µM
# [2] = second compound 0.0316 µM, first compound 0.1 µM
# [3] = second compound 0.0316 µM, first compound 0.316 µM
# [4] = second compound 0.0316 µM, first compound 1 µM
# [5] = second compound 0.1 µM, first compound 0.0316 µM
# [6] = second compound 0.1 µM, first compound 0.1 µM
# [7] = second compound 0.1 µM, first compound 0.316 µM
# [8] = second compound 0.1 µM, first compound 1 µM
# [9] = second compound 0.316 µM, first compound 0.0316 µM
# [10] = second compound 0.316 µM, first compound 0.1 µM
# [11] = second compound 0.316 µM, first compound 0.316 µM
# [12] = second compound 0.316 µM, first compound 1 µM
# [13] = second compound 1 µM, first compound 0.0316 µM
# [14] = second compound 1 µM, first compound 0.1 µM
# [15] = second compound 1 µM, first compound 0.316 µM
# [16] = second compound 1 µM, first compound 1 µM
# [17] = second compound 3.16 µM, first compound 0.0316 µM
# [18] = second compound 3.16 µM, first compound 0.1 µM
# [19] = second compound 3.16 µM, first compound 0.316 µM
# [20] = second compound 3.16 µM, first compound 1 µM
# [21] = second compound 10 µM, first compound 0.0316 µM
# [22] = second compound 10 µM, first compound 0.1 µM
# [23] = second compound 10 µM, first compound 0.316 µM
# [24] = second compound 10 µM, first compound 1 µM
# [25] = second compound 0.0316 µM, first compound 3.16 µM
# [26] = second compound 0.0316 µM, first compound 10 µM
# [27] = second compound 0.1 µM, first compound 3.16 µM
# [28] = second compound 0.1 µM, first compound 10 µM
# [29] = second compound 0.316 µM, first compound 3.16 µM
# [30] = second compound 0.316 µM, first compound 10 µM
# [31] = second compound 1 µM, first compound 3.16 µM
# [32] = second compound 1 µM, first compound 10 µM
# [33] = second compound 3.16 µM, first compound 3.16 µM
# [34] = second compound 3.16 µM, first compound 10 µM
# [35] = second compound 10 µM, first compound 3.16 µM
# [36] = second compound 10 µM, first compound 10 µM
# 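Further: spheroids exposed to compounds for one week before readout.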
# 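Wherever viability, T/C is given: percent viability relative to DMSO vehicle wells taken as 100%.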
smiles,measurement,setting,value
C=CCn1c(=O)c2cnc(Nc3ccc(N4CCN(C)CC4)cc3)nc2n1-c1cccc(C(C)(C)O)n1 + COC1C(OC(N)=O)C(O)C(Oc2ccc3c(O)c(NC(=O)c4ccc(O)c(CC=C(C)C)c4)c(=O)oc3c2C)OC1(C)C,IC50,second compound 0.0316 µM,> 1 µM
same,IC50,second compound 0.1 µM,> 1 µM
same,IC50,second compound 0.316 µM,> 1 µM
same,IC50,second compound 1 µM,> 1 µM
same,IC50,second compound 3.16 µM,> 1 µM
same,IC50,second compound 10 µM,> 1 µM
same,"viability, T/C","second compound 0.0316 µM, first compound 0.00316 µM",102%
same,"viability, T/C","second compound 0.0316 µM, first compound 0.01 µM",97.8%
same,"viability, T/C",[1],97.2%
same,"viability, T/C",[2],113%
same,"viability, T/C",[3],97.8%
same,"viability, T/C",[4],91.8%
same,"viability, T/C","second compound 0.1 µM, first compound 0.00316 µM",105%
same,"viability, T/C","second compound 0.1 µM, first compound 0.01 µM",101%
same,"viability, T/C",[5],89.2%
same,"viability, T/C",[6],103%
same,"viability, T/C",[7],95.3%
same,"viability, T/C",[8],55.8%
same,"viability, T/C","second compound 0.316 µM, first compound 0.00316 µM",94.3%
same,"viability, T/C","second compound 0.316 µM, first compound 0.01 µM",106%
same,"viability, T/C",[9],101%
same,"viability, T/C",[10],97.8%
same,"viability, T/C",[11],95.2%
same,"viability, T/C",[12],59.4%
same,"viability, T/C","second compound 1 µM, first compound 0.00316 µM",105%
same,"viability, T/C","second compound 1 µM, first compound 0.01 µM",94.5%
same,"viability, T/C",[13],101%
same,"viability, T/C",[14],103%
same,"viability, T/C",[15],90.7%
same,"viability, T/C",[16],61.5%
same,"viability, T/C","second compound 3.16 µM, first compound 0.00316 µM",93.8%
same,"viability, T/C","second compound 3.16 µM, first compound 0.01 µM",104%
same,"viability, T/C",[17],100%
same,"viability, T/C",[18],98.2%
same,"viability, T/C",[19],93.9%
same,"viability, T/C",[20],61.4%
same,"viability, T/C","second compound 10 µM, first compound 0.00316 µM",105%
same,"viability, T/C","second compound 10 µM, first compound 0.01 µM",100%
same,"viability, T/C",[21],98.3%
same,"viability, T/C",[22],103%
same,"viability, T/C",[23],87.7%
same,"viability, T/C",[24],67.3%
C#Cc1c(F)ccc2cc(O)cc(-c3ncc4c(N5CC6CCC(C5)N6)nc(OCC56CCCN5CC(F)C6)nc4c3F)c12 (stereo unspecified) + Nc1ccc(C#CCN(C(=O)Cc2ncc(C(F)(F)F)cc2C(F)(F)F)c2ccc(F)cc2)nn1,IC50,second compound 0.0316 µM,7.31 µM
same,IC50,second compound 0.1 µM,4.11 µM
same,IC50,second compound 0.316 µM,3.43 µM
same,IC50,second compound 1 µM,6.65 µM
same,IC50,second compound 3.16 µM,6.47 µM
same,IC50,second compound 10 µM,2.49 µM
same,"viability, T/C",[1],105%
same,"viability, T/C",[2],96.2%
same,"viability, T/C",[3],98.5%
same,"viability, T/C",[4],88.6%
same,"viability, T/C",[25],62.5%
same,"viability, T/C",[26],45.3%
same,"viability, T/C",[5],97.1%
same,"viability, T/C",[6],95.9%
same,"viability, T/C",[7],90.4%
same,"viability, T/C",[8],75.3%
same,"viability, T/C",[27],56.9%
same,"viability, T/C",[28],29.2%
same,"viability, T/C",[9],111%
same,"viability, T/C",[10],112%
same,"viability, T/C",[11],75.2%
same,"viability, T/C",[12],63.3%
same,"viability, T/C",[29],58.6%
same,"viability, T/C",[30],39%
same,"viability, T/C",[13],103%
same,"viability, T/C",[14],96.2%
same,"viability, T/C",[15],91.3%
same,"viability, T/C",[16],81.9%
same,"viability, T/C",[31],53.7%
same,"viability, T/C",[32],47.9%
same,"viability, T/C",[17],84.7%
same,"viability, T/C",[18],89.2%
same,"viability, T/C",[19],99.5%
same,"viability, T/C",[20],68.8%
same,"viability, T/C",[33],68.1%
same,"viability, T/C",[34],40.7%
same,"viability, T/C",[21],92.9%
same,"viability, T/C",[22],86.2%
same,"viability, T/C",[23],74.6%
same,"viability, T/C",[24],57.1%
same,"viability, T/C",[35],50.6%
same,"viability, T/C",[36],33.7%
O=c1[nH]cc(F)c(=O)[nH]1 + COC1C(OC(N)=O)C(O)C(Oc2ccc3c(O)c(NC(=O)c4ccc(O)c(CC=C(C)C)c4)c(=O)oc3c2C)OC1(C)C,IC50,second compound 0.0316 µM,> 10 µM
same,IC50,second compound 0.1 µM,> 10 µM
same,IC50,second compound 0.316 µM,> 10 µM
same,IC50,second compound 1 µM,> 10 µM
same,IC50,second compound 3.16 µM,> 10 µM
same,IC50,second compound 10 µM,> 10 µM
same,"viability, T/C",[1],101%
same,"viability, T/C",[2],94.6%
same,"viability, T/C",[3],73.4%
same,"viability, T/C",[4],61.1%
same,"viability, T/C",[25],60.7%
same,"viability, T/C",[26],68.7%
same,"viability, T/C",[5],99.4%
same,"viability, T/C",[6],96.3%
same,"viability, T/C",[7],75.3%
same,"viability, T/C",[8],64.2%
same,"viability, T/C",[27],61%
same,"viability, T/C",[28],61.9%
same,"viability, T/C",[9],100%
same,"viability, T/C",[10],97.2%
same,"viability, T/C",[11],67.3%
same,"viability, T/C",[12],59.3%
same,"viability, T/C",[29],60%
same,"viability, T/C",[30],63%
same,"viability, T/C",[13],95.8%
same,"viability, T/C",[14],94.1%
same,"viability, T/C",[15],75.2%
same,"viability, T/C",[16],58.1%
same,"viability, T/C",[31],52.1%
same,"viability, T/C",[32],59%
same,"viability, T/C",[17],99.2%
same,"viability, T/C",[18],107%
same,"viability, T/C",[19],75.7%
same,"viability, T/C",[20],69.8%
same,"viability, T/C",[33],65.4%
same,"viability, T/C",[34],65.8%
same,"viability, T/C",[21],111%
same,"viability, T/C",[22],99.2%
same,"viability, T/C",[23],68.5%
same,"viability, T/C",[24],57.9%
same,"viability, T/C",[35],54.2%
same,"viability, T/C",[36],61.2%
